Assay results published in ChEMBL document CHEMBL1153626, “Rapid assessment of a novel series of selective CB(2) agonists using parallel synthesis protocols: A Lipophilic Efficiency (LipE) analysis” (Bioorg Med Chem Lett, 2009).

Tests used:
Assay type in all cases: functional, cell-based
Cannabinoid receptor 2 = Cannabinoid receptor 2 (Homo sapiens, UniProt P34972); assay: Agonist activity at human recombinant CB2 receptor expressed in CHO cells assessed as inhibition forskolin-induced cAMP release
Cannabinoid receptor 1 [1] = molecular target: T1, Cannabinoid receptor 1 (Homo sapiens, UniProt P21554); assay: Agonist activity at human recombinant CB1 receptor expressed in CHO cells at 10 uM by FLIPR assay
Cannabinoid receptor 1 [2] = molecular target: T1, Cannabinoid receptor 1; assay: Agonist activity at human recombinant CB1 receptor expressed in CHO cells by FLIPR assay

Cannabinoid receptor 2, sequence (P34972 whole entry): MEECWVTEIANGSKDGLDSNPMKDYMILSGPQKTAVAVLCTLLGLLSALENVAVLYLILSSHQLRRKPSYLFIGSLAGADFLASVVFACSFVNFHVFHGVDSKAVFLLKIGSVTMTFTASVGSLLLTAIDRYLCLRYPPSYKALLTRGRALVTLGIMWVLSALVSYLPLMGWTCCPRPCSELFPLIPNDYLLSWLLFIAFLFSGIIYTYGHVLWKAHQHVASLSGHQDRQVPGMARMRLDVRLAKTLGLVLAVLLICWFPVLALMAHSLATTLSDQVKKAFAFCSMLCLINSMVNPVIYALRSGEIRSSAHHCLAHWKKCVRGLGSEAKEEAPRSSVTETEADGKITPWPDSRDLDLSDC
T1 sequence (P21554 whole entry): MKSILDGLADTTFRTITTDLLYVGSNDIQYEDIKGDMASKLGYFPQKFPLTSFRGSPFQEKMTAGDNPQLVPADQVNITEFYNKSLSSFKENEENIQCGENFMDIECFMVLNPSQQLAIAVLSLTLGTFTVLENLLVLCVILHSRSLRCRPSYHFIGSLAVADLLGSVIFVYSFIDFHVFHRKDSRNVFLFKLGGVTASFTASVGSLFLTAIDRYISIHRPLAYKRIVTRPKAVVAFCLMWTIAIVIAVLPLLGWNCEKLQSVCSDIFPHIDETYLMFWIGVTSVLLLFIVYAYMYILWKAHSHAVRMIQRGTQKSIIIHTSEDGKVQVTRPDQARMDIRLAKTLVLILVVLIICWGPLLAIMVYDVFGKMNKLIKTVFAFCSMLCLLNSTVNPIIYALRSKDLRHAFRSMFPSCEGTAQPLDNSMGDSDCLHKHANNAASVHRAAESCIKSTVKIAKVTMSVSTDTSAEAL

COc1ncc(Br)cc1CN1CCc2c(nc(C(C)(C)C)n2CC2CC2)C1
EC50 (Cannabinoid receptor 2): 295 nM

CCCOC(=O)N1CCc2c(nc(CC(C)(C)C)n2CC2CC2)C1
EC50 (Cannabinoid receptor 2): 560 nM

CC(C)(C)Cc1nc2c(n1CC1CC1)CCN(S(=O)(=O)c1cccnc1)C2
EC50 (Cannabinoid receptor 2): 24.5 nM | Activity (Cannabinoid receptor 1 [1]): 4%

CCCCC(=O)N1CCc2c(nc(CC(C)(C)C)n2CC2CC2)C1
EC50 (Cannabinoid receptor 2): 1020 nM

Cc1noc(C)c1S(=O)(=O)N1CCc2c(nc(CC(C)(C)C)n2CC2CC2)C1
EC50 (Cannabinoid receptor 2): 7 nM | Activity (Cannabinoid receptor 1 [1]): 24%

CCCCCN1CCc2c(nc(C(C)(C)C)n2CC2CC2)C1
EC50 (Cannabinoid receptor 2): 878 nM

CCCCCCC(C)(C)c1ccc([C@@H]2C[C@H](O)CC[C@H]2CCCO)c(O)c1
Activity (Cannabinoid receptor 1 [1]): 100%

CC(C)(C)c1nc2c(n1CC1CC1)CCN(S(C)(=O)=O)C2
EC50 (Cannabinoid receptor 2): 403 nM | Activity (Cannabinoid receptor 1 [1]): 10%

CC(C)(C)Cc1nc2c(n1CC1CC1)CCN(S(C)(=O)=O)C2
EC50 (Cannabinoid receptor 2): 439 nM | Activity (Cannabinoid receptor 1 [1]): 9%

CC(C)(C)Cc1nc2c(n1CC1CC1)CCN(S(=O)(=O)Cc1ccccc1)C2
EC50 (Cannabinoid receptor 2): 13.4 nM | Activity (Cannabinoid receptor 1 [1]): 15%

Cc1nocc1S(=O)(=O)N1CCc2c(nc(C(C)(C)C)n2CC2CC2)C1
EC50 (Cannabinoid receptor 2): 55.4 nM | Activity (Cannabinoid receptor 1 [1]): 38% | EC50 (Cannabinoid receptor 1 [2]): 18000 nM

CN(Cc1ccccc1)C(=O)N1CCc2c(nc(C(C)(C)C)n2CC2CC2)C1
EC50 (Cannabinoid receptor 2): 637 nM

COCCS(=O)(=O)N1CCc2c(nc(CC(C)(C)C)n2CC2CC2)C1
EC50 (Cannabinoid receptor 2): 21.5 nM | Activity (Cannabinoid receptor 1 [1]): 37% | EC50 (Cannabinoid receptor 1 [2]): 14000 nM

CC(C)(C)c1nc2c(n1CC1CC1)CCN(S(=O)(=O)c1ccccc1)C2
EC50 (Cannabinoid receptor 2): 7.9 nM | Activity (Cannabinoid receptor 1 [1]): 10%

CCCN(C)C(=O)N1CCc2c(nc(C(C)(C)C)n2CC2CC2)C1
EC50 (Cannabinoid receptor 2): 380 nM

Cc1noc(C)c1S(=O)(=O)N1CCc2c(nc(C(C)(C)C)n2CC2CC2)C1
EC50 (Cannabinoid receptor 2): 5.1 nM | Activity (Cannabinoid receptor 1 [1]): 66% | EC50 (Cannabinoid receptor 1 [2]): 7500 nM

CCCCCN1CCc2c(nc(CC(C)(C)C)n2CC2CC2)C1
EC50 (Cannabinoid receptor 2): 3000 nM

CC(C)(C)Cc1nc2c(n1CC1CC1)CCN(S(=O)(=O)c1ccccc1)C2
EC50 (Cannabinoid receptor 2): 9.1 nM | Activity (Cannabinoid receptor 1 [1]): 9%

CC(C)(C)C(=O)N1CCc2c(nc(C(C)(C)C)n2CC2CC2)C1
EC50 (Cannabinoid receptor 2): 320 nM

COCCS(=O)(=O)N1CCc2c(nc(C(C)(C)C)n2CC2CC2)C1
EC50 (Cannabinoid receptor 2): 26.7 nM | Activity (Cannabinoid receptor 1 [1]): 25%

CC(C)(C)c1nc2c(n1CC1CC1)CCN(S(=O)(=O)Cc1ccccc1)C2
EC50 (Cannabinoid receptor 2): 21.8 nM | Activity (Cannabinoid receptor 1 [1]): 13%

CN(Cc1ccccc1)C(=O)N1CCc2c(nc(CC(C)(C)C)n2CC2CC2)C1
EC50 (Cannabinoid receptor 2): 523 nM

CC(C)(C)c1nc2c(n1CC1CC1)CCN(S(=O)(=O)c1cccnc1)C2
EC50 (Cannabinoid receptor 2): 14.2 nM | Activity (Cannabinoid receptor 1 [1]): 11%

Cc1nocc1S(=O)(=O)N1CCc2c(nc(CC(C)(C)C)n2CC2CC2)C1
EC50 (Cannabinoid receptor 2): 18.5 nM | Activity (Cannabinoid receptor 1 [1]): 9%
